From a melting point compilation (Tetko et al.)

| Structure (SMILES) | melting point [°C] |
| --- | --- |
| COc1ccc(C(=O)c2ccccc2F)cc1[N+](=O)[O-] | 133 to 139 |
| Cl[Si](Cl)(Cl)CCC12CC3CC(CC(C3)C1)C2 | 36 |
| COc1cc2c(cc1OC)C(c1ccc(C)o1)SC(c1ccc(C)o1)=N2 (stereo unspecified) | 148 |
| Cc1ccc(N/N=C(/C#N)c2nc(-c3ccc(Cl)cc3)cs2)cc1 | 208 |
| OCc1csc2ccc(Cl)cc12 | 93 to 94 |
| O=C1C=CC(=O)N1Cc1ccccc1 | 69 |
| CCOc1ccc2c(c1)C(C)=CC(C)(C)N2 | < -20 |
| Cc1cc(Oc2ncccc2[N+](=O)[O-])cc(C)c1Cl | 80 to 82 |
| Nc1cccc2c1C(=O)c1cccc(Cl)c1C2=O | 207 |
| CCOC(=O)c1c(NC(=O)Nc2ccccc2)sc2c1CCCC2 | 150 to 152 |
| O=C(C(=O)C(Br)c1ccccc1)C(Br)c1ccccc1 (stereo unspecified) | 124 |
| Cc1nnsc1-c1onc(C)c1C(=O)Cl | 66 to 70 |
| Cc1cccnc1C | -17 |
| Cc1cc(=O)n(N)c(=S)[nH]1 | 262 |
| COC(=O)c1cc(Cl)ccc1Br | 39 |
| OCc1snnc1-c1ccccc1 | 116 to 118 |
| CCOC(=O)C(Cl)=NNc1ccccc1 | 77 to 80 |
| CC1(c2ccccc2)CC(C(=O)c2cc3ccccc3o2)C1 (stereo unspecified) | 156 to 157 |
| COc1ccc2cc(C(=O)c3ccccc3)c(=O)oc2c1 | 150 to 153 |
| CCOP(=O)(OCC)Oc1c2cc(C(C)(C)C)cc1Cc1cc(C(C)(C)C)cc(c1O)Cc1cc(C(C)(C)C)cc(c1OP(=O)(OCC)OCC)Cc1cc(C(C)(C)C)cc(c1O)C2 | 203 to 205 |
| CCOC(=O)c1csc(NC(=O)CCl)n1 | 208 to 210 |
| O=C(NCN(CNC(=O)c1ccccc1)N(CNC(=O)c1ccccc1)CNC(=O)c1ccccc1)c1ccccc1 | 99 to 101 |
| C=C(NC(C)=O)C(=O)OC | 50 |

| Structure (SMILES) | melting point [°C] |
| --- | --- |
| Cn1cc(Br)c(C(=O)O)n1 | 211 to 213 |
| CN1C2CCC1CC(OC(=O)C(O)c1ccccc1)C2 (stereo unspecified) | 99.5 |
| CC(C)(C)OC(=O)c1n[nH]c2nc(F)ccc12 | 166 to 168 |
| Cc1cncc(Oc2ccc(Br)cc2)n1 | 58.5 to 60 |
| CC(=O)Oc1cc(C)c(OC(C)=O)c2ccccc12 | 113 |
| NC1CCC(CC2CCC(N)CC2)CC1 (stereo unspecified) | 64.7 |
| O=C(O)C(F)(F)C(F)(F)C(F)(F)C(F)(F)C(F)(F)C(F)(C(F)(F)F)C(F)(F)F | 33 to 36 |
| CC1Cc2ccccc2CC1C (stereo unspecified) | -5 |
| O=C(NCc1ccc(S(=O)(=O)Cl)s1)c1ccc(Cl)cc1 | 138 to 140 |
| CC1(C)OCC(C(O)C(O)C2COC(C)(C)O2)O1 (stereo unspecified) | 114 |
| O=c1[nH]cc(Cl)cc1[N+](=O)[O-] | 234 to 236 |
| CCCCOC(=O)C=CC(=O)OCCCC | -85 |
| CCC=Cc1ccccc1 | -43.1 |
| c1cc(-c2cnc3ccccc3n2)cc(-c2cnc3ccccc3n2)c1 | 202 to 203 |
| O=C(O)c1cc(Br)cs1 | 121 |
| CC12CCC(C(COC(=O)c3ccc([N+](=O)[O-])cc3)C1)C2(C)C (stereo unspecified) | 100 |
| CN(C)C1=C(C=C(c2ccc(F)cc2)c2ccc(F)cc2)C(=O)N(c2ccccc2)C1=O | 157 |
| O=C1CCC(c2ccc(N=Cc3ccccc3[N+](=O)[O-])cc2)=NN1 | 234 to 236 |
| c1ccc(CSc2nnc(SCc3ccccc3)nn2)cc1 | 137 to 139 |
| NC(=NO)C(N)=NO | 200 to 204 |
| Cc1ccccc1NC(=S)C(=O)c1ccccc1 | 124 |
| N#CCS(=O)(=O)c1ccc(F)cc1 | 87 to 89 |
| Cc1ccc2cc3ccccc3cc2c1 | 209 |

| Structure (SMILES) | melting point [°C] |
| --- | --- |
| CC12CCC(C(=CC(N)=O)C1=O)C2(C)C (stereo unspecified) | 152 |
| CCCCCOc1ccc(/N=N/c2ccc(CCCC)cc2)cc1 | 40.5 to 43 |
| Nc1c(Cl)cc(OC(F)(F)F)cc1Cl | 32 |
| CC(=O)Oc1ccc2c(c1)c(OC(C)=O)c(-c1ccccc1)n2OC(C)=O | 194 to 196 |
| Cc1cccc(NC(=O)C(F)(F)F)c1C(=O)O | 168 to 169 |
| BrC1CCC(Br)C(Br)CCC(Br)C(Br)CCC1Br (stereo unspecified) | 173 to 177 |
| c1cc(-c2n[nH]c(-c3ccncc3)n2)ccn1 | 242 |
| Nc1ccc(OC(F)(F)F)c(Cl)c1 | 30 |
| NC(=NO)c1cccc(Cl)c1 | 115 to 117 |
| Cc1c(CCl)cccc1[N+](=O)[O-] | 42 to 47 |
| CCC(C)C(CC)C(N)=O (stereo unspecified) | 114 |
| ON=CC1=C(C#Cc2ccccc2)CCC1 | 105 to 106 |
| Nc1ccc(C(F)(F)F)cc1[N+](=O)[O-] | 107 |
| Cc1nn(C)c(C(=O)O)c1Br | 225 to 226 |
| Nc1ccnc(N)n1 | 143 to 148 |
| CC(CO)NC(=O)C1C=C2c3cccc4[nH]cc(c34)CC2N(C)C1 (stereo unspecified) | 162 |
| Cc1cc(NS(=O)(=O)c2ccc(N)cc2)sn1 | 192 |
| O=S(O)c1ccc(Cl)cc1 | 99 |
| O=C1c2ccccc2C(=O)c2cc(CO)ccc21 | 192 to 197 |
| Clc1ncc(Br)cn1 | 79 |
| O=C(O)c1csc(-c2cccc(Cl)c2Cl)n1 | 233 to 234 |
| CCCCCCCCCCCCC(C)CC (stereo unspecified) | -22 |
| CCOC(C(=O)c1ccccc1)c1ccccc1 (stereo unspecified) | 62 |

| Structure (SMILES) | melting point [°C] |
| --- | --- |
| COc1ccccc1OCC(O)COC(N)=O (stereo unspecified) | 93 |
| CC1(C)C(=O)N(Br)C(=O)N1Br | 187 to 191 |
| c1cn[nH]c1 | 68 |
| C1SCSCS1 | 220 |
| O=c1cc[nH]c2c1cnn2-c1ccccc1 | 166 to 168 |
| Cc1c(O)c(Br)c(Br)c(Br)c1Br | 209 to 213 |
| OCc1ccncn1 | 77 |
| NC(=S)Nc1cccc2ccccc12 | 193 to 197 |
| CCCCC(CC)CO[N+](=O)[O-] (stereo unspecified) | 75 |
| O=C(O)c1ccc2ncccc2c1 | 293 to 294 |
| N#Cc1c(N)oc(-c2ccccc2)c1-c1ccccc1 | 205 to 208 |
| COC(=O)C1(Br)CCC(Br)(C(=O)OC)CC1 (stereo unspecified) | 148 to 150 |
| CC(=O)c1nn(-c2ccc(F)cc2)c(=N)s1 | 198 |
| O=C(NC(=S)Nc1ccccn1)c1ccccc1 | 144 to 147 |
| O=C(Cl)c1csc(-c2cccs2)n1 | 93 to 94 |
| COc1ccc(OCC(N)=S)cc1 | 113 to 114 |
| OCc1ccccc1Cn1cncn1 | 98 to 100 |
| CNC(=S)NCO | 88 |
| COc1cc(C(=O)c2ccccc2Cl)c([N+](=O)[O-])cc1OC | 122 |
| Nc1ccc(-c2ccc(N)cc2C(F)(F)F)c(C(F)(F)F)c1 | 183 |
| CC1=CC[C@@H]2[C@@H]3CCC4CC(=O)CC[C@]4(C)[C@H]3CC[C@]12C (stereo partly specified) | 140 to 141 |
| O=C1C[C@@H](C(=O)O)c2ccccc21 | 113 |
